In ChEMBL document CHEMBL4706548, “3-Methylthiazolo[3,2-a]benzimidazole-benzenesulfonamide conjugates as novel carbonic anhydrase inhibitors endowed with anticancer activity: Design, synthesis, biological and molecular modeling studies” (Eur J Med Chem, 2020):

How the values were obtained:
Carbonic anhydrase 9 = Carbonic anhydrase 9 (Homo sapiens, UniProt Q16790); assay: Inhibition of human CA9 preincubated for 15 mins prior to testing by phenol red-based stopped-flow CO2 hydration assay
Carbonic anhydrase 1 = Carbonic anhydrase 1 (Homo sapiens, UniProt P00915); assay: Inhibition of human CA1 preincubated for 15 mins prior to testing by phenol red-based stopped-flow CO2 hydration assay
MDA-MB-231 [1] = assay: Induction of apoptosis in human MDA-MB-231 cells assessed as late apoptotic cells at […] measured after 24 hrs by Annexin V-FITC/propidium iodide staining based flow cytometry (reference value: 0.24 %); assay type: functional; design: dose or concentration left out as unconfirmed
MCF7 [2] = assay: Induction of apoptosis in human MCF7 cells assessed as late apoptotic cells at […] measured after 24 hrs by Annexin V-FITC/propidium iodide staining based flow cytometry (reference value: 0.29 %); assay type: functional; design: dose or concentration left out as unconfirmed
MCF7 [3] = assay: Antiproliferative activity against human MCF7 cells assessed as reduction in cell viability incubated for 48 hrs under normaxic condition by MTT assay; details: MCF7, 48 h
MCF7 [4] = assay: Antiproliferative activity against human MCF7 cells assessed as reduction in cell viability incubated for 48 hrs under chemically-induced hypoxic condition by MTT assay; details: MCF7, 48 h
MDA-MB-231 [5] = assay: Induction of apoptosis in human MDA-MB-231 cells assessed as early apoptotic cells at […] measured after 24 hrs by Annexin V-FITC/propidium iodide staining based flow cytometry (reference value: 0.56 %); assay type: functional; design: dose or concentration left out as unconfirmed
MDA-MB-231 [6] = assay: Induction of apoptosis in human MDA-MB-231 cells assessed as necrotic cells at […] measured after 24 hrs by Annexin V-FITC/propidium iodide staining based flow cytometry (reference value: 0.64 %); assay type: functional; design: dose or concentration left out as unconfirmed
MDA-MB-231 [7] = assay: Antiproliferative activity against human MDA-MB-231 cells assessed as reduction in cell viability incubated for 48 hrs under chemically-induced hypoxic condition by MTT assay; details: MDA-MB-231, 48 h
MCF7 [8] = assay: Induction of apoptosis in human MCF7 cells assessed as early apoptotic cells at […] measured after 24 hrs by Annexin V-FITC/propidium iodide staining based flow cytometry (reference value: 0.42 %); assay type: functional; design: dose or concentration left out as unconfirmed
MDA-MB-231 [9] = assay: Induction of cell cycle arrest in human MDA-MB-231 cells assessed as decrease in G0/G1 cells at IC50 concentration incubated for 24 hrs by propidium iodide staining based flow cytometry (reference value: 56.42%); assay type: functional; design: scale not given: the % may be the effect or the level left
MDA-MB-231 [10] = assay: Antiproliferative activity against human MDA-MB-231 cells assessed as reduction in cell viability incubated for 48 hrs under normaxic condition by MTT assay; details: MDA-MB-231, 48 h
MCF7 [11] = assay: Induction of apoptosis in human MCF7 cells assessed as necrotic cells at […] measured after 24 hrs by Annexin V-FITC/propidium iodide staining based flow cytometry (reference value: 1.15 %); assay type: functional; design: dose or concentration left out as unconfirmed
MCF7 [12] = assay: Induction of cell cycle arrest in human MCF7 cells assessed as decrease in G0/G1 cells at IC50 concentration incubated for 24 hrs by propidium iodide staining based flow cytometry (reference value: 52.63%); assay type: functional; design: scale not given: the % may be the effect or the level left

Sequence of Carbonic anhydrase 1 (P00915 whole entry): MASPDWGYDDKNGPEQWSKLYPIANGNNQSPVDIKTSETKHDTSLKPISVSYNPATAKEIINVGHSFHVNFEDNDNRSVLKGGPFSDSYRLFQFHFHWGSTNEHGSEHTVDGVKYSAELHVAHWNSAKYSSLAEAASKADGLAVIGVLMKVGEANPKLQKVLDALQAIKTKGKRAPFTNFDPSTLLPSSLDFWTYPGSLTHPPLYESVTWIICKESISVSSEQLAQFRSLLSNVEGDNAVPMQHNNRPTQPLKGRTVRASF

For `Cc1c(C(=O)/C=C/Nc2cccc(S(N)(=O)=O)c2)sc2nc3ccccc3n12`, which Ki (Carbonic anhydrase 9) is on record?
The Ki was 813 nM.

`Cc1c(C(=O)/C=C/Nc2cc(Cl)c(S(N)(=O)=O)cc2S(N)(=O)=O)sc2nc3ccccc3n12` was tested. Which Ki (Carbonic anhydrase 9) did it give?
Its Ki is 30.8 nM.

For `C/C(=N\Nc1ccc(S(N)(=O)=O)cc1)c1sc2nc3ccccc3n2c1C`, which Ki (Carbonic anhydrase 9) is on record?
The Ki was 73.1 nM.

With `Cc1c(C(=O)/C=C/Nc2cccc(C(=O)O)c2)sc2nc3ccccc3n12` as the compound, how does the Ki (Carbonic anhydrase 1) read?
Its Ki is greater than 10000 nM.

What about the Ki (Carbonic anhydrase 9) of the same compound?
Its Ki is 14500 nM.

How did the Ki (Carbonic anhydrase 9) turn out when `Cc1c(NC(=O)Nc2cccc(S(N)(=O)=O)c2)sc2nc3ccccc3n12` was run?
Its Ki is 76.7 nM.

How did the Activity (MDA-MB-231 [1]) turn out when `Cc1ccc(N/C=C/C(=O)c2sc3nc4ccccc4n3c2C)cc1S(N)(=O)=O` was run?
The Activity was 15.64%.

And the Activity (MCF7 [2])?
The Activity was 17.16%.

What about the IC50 (MCF7 [3]) of the same compound?
Its IC50 is 1510 nM.

And the Ki (Carbonic anhydrase 9)?
Its Ki is 6.2 nM.

What about the IC50 (MCF7 [4]) of the same compound?
Its IC50 is 2360 nM.

What about the Activity (MDA-MB-231 [5]) of the same compound?
The Activity was 7.21%.

And the Activity (MDA-MB-231 [6])?
Its Activity is 11.22%.

And the IC50 (MDA-MB-231 [7])?
Its IC50 is 4810 nM.

What about the Activity (MCF7 [8]) of the same compound?
Its Activity is 3.71%.

What about the Activity (MDA-MB-231 [9]) of the same compound?
Its Activity is 26.47%.

What about the IC50 (MDA-MB-231 [10]) of the same compound?
Its IC50 is 9370 nM.

And the Activity (MCF7 [11])?
Its Activity is 6.04%.

And the Activity (MCF7 [12])?
Its Activity is 34.36%.

How did the Ki (Carbonic anhydrase 9) turn out when `Cc1c(NC(=O)Nc2ccc(S(N)(=O)=O)cc2)sc2nc3ccccc3n12` was run?
The Ki was 63.3 nM.

Which Ki (Carbonic anhydrase 9) does the source give for `Cc1c(C(=O)/C=C/NNc2ccc(S(N)(=O)=O)cc2)sc2nc3ccccc3n12` here?
The Ki was 12.3 nM.

`Cc1c(NC(=O)NNC(=O)c2ccc(S(N)(=O)=O)cc2)sc2nc3ccccc3n12` was tested. Which Ki (Carbonic anhydrase 9) did it give?
Its Ki is 53.1 nM.

What does the source list for `C/C(=N\NC(=O)c1ccc(S(N)(=O)=O)cc1)c1sc2nc3ccccc3n2c1C`?
IC50 (MCF7 [3]): 20400 nM; Ki (Carbonic anhydrase 9): 5.5 nM; IC50 (MCF7 [4]): 29400 nM; IC50 (MDA-MB-231 [7]): 6790 nM; IC50 (MDA-MB-231 [10]): 9910 nM

With `Cc1c(C(=O)/C=C/NCc2ccc(S(N)(=O)=O)cc2)sc2nc3ccccc3n12` as the compound, how does the Ki (Carbonic anhydrase 9) read?
The Ki was 55.9 nM.

How did the Ki (Carbonic anhydrase 9) turn out when `Cc1c(C(=O)/C=C/Nc2ccc(C(=O)O)cc2)sc2nc3ccccc3n12` was run?
The Ki was 830 nM.

`Cc1c(C(=O)/C=C/Nc2ccc(S(N)(=O)=O)cc2)sc2nc3ccccc3n12` was tested. Which Ki (Carbonic anhydrase 9) did it give?
Its Ki is 36.6 nM.

With `Cc1c(NC(=O)NCCc2ccc(S(N)(=O)=O)cc2)sc2nc3ccccc3n12` as the compound, how does the Ki (Carbonic anhydrase 9) read?
Its Ki is 29.7 nM.

Which Ki (Carbonic anhydrase 9) does the source give for `Cc1c(C(=O)/C=C/Nc2ccccc2S(N)(=O)=O)sc2nc3ccccc3n12` here?
The Ki was 498 nM.

With `Cc1c(C(=O)/C=C/NCCc2ccc(S(N)(=O)=O)cc2)sc2nc3ccccc3n12` as the compound, how does the Ki (Carbonic anhydrase 9) read?
The Ki was 20.5 nM.

Which Ki (Carbonic anhydrase 9) does the source give for `Cc1c(NC(=O)Nc2ccccc2S(N)(=O)=O)sc2nc3ccccc3n12` here?
The Ki was 831 nM.

What does the source list for `Cc1c(C(=O)/C=C/NNC(=O)c2ccc(S(N)(=O)=O)cc2)sc2nc3ccccc3n12`?
IC50 (MCF7 [3]): 8070 nM; Ki (Carbonic anhydrase 9): 9.7 nM; IC50 (MCF7 [4]): 9380 nM; IC50 (MDA-MB-231 [7]): 15200 nM; IC50 (MDA-MB-231 [10]): 14200 nM
